# Laboratory results as given in patent publication US20220313656A1, “NEW CLASS OF ANTIBIOTICS HAVING LOW MIC-VALUES TOWARDS DIFFERENT STRAINS OF BACTERIA” (priority 2019, published 2022).
# Where two headings read alike, the source gives them in different places.
# What was measured:
# Experiment in all cases: MIC, serial dilution method (CLSI)
# [1] = test system: S. aureus CC398; type: cell-based, Staphylococcus aureus
# Protocol: (§1) These inoculums were each in diluted 1:100 in Müller Hinton (MH) broth (Sigma, Copenhagen, Denmark). From the diluted inoculums 100 μl was transferred to each well in a 96-well plate and mixed with the compound to be MIC determined. The plate was incubated for 24 hours at 37° C. (without shaking). The MIC value was determined as the lowest concentration in which no bacterial growth could be visually detected. All MIC determinations were done in duplicates. […] Since all derivatives are new, no control strains (with reference MIC values) were available.
# [2] = test system: S. aureus USA300; type: cell-based, Staphylococcus aureus
# Protocol: as §1
# [3] = test system: E. faecalis; type: cell-based, Enterococcus faecalis
# Protocol: as §1
# [4] = test system: E. coli APEC O2; type: cell-based, Escherichia coli
# Protocol: as §1
# [5] = test system: Staphylococus pseudintermedius; type: cell-based, Staphylococcus pseudintermedius
# Protocol: as §1
# [6] = test system: E. faecium; type: cell-based, Enterococcus faecium
# Protocol: as §1
# [7] = test system: Bacillus cereus; type: cell-based
# Protocol: as §1
# [8] = test system: Listeria monocytogenes; type: cell-based
# Protocol: as §1
# [9] = test system: Salmonella enteritidis; type: cell-based
# Protocol: as §1
# [10] = test system: Streptococcus equi; type: cell-based
# Protocol: as §1
# [11] = Staphylococcus aureus, MRSA, 24 h, read-out: MIC
# [12] = Staphylococcus aureus, USA300, 24 h, read-out: MIC
# [13] = Enterococcus faecalis, 24 h, read-out: MIC
# [14] = Escherichia coli, APECO2, 24 h, read-out: MIC
# [15] = Staphylococcus pseudintermedius, 24 h, read-out: MIC
# [16] = Enterococcus faecium, 24 h, read-out: MIC
# [17] = Salmonella enterica, ENTERITIDIS, 24 h, read-out: MIC
# [18] = S. aureus CC398 (MRSA strain), MH broth, 24 hours at 37° C., set to 256 if growth at […]
# [19] = S. aureus USA300, MH broth, 24 hours at 37° C., set to 256 if growth at […]
# [20] = E. faecalis, MH broth, 24 hours at 37° C., set to 256 if growth at […]
# [21] = E. coli APEC O2, MH broth, 24 hours at 37° C., set to 256 if growth at […]
# [22] = Staphylococus pseudintermedius, MH broth, 24 hours at 37° C., set to 256 if growth at […]
# [23] = E. faecium, MH broth, 24 hours at 37° C., set to 256 if growth at […]
# [24] = MH broth, 24 hours at 37° C., set to 256 if growth at […]
# [25] = Salmonella enteritidis, MH broth, 24 hours at 37° C., set to 256 if growth at […]
SMILES,"MIC [1, 11] [µg/mL]","MIC [2, 12] [µg/mL]","MIC [3, 13] [µg/mL]","MIC [4, 14] [µg/mL]","MIC [5, 15] [µg/mL]","MIC [6, 16] [µg/mL]","MIC ([7]; 24 h, read-out: MIC) [µg/mL]","MIC ([8]; 24 h, read-out: MIC) [µg/mL]","MIC [9, 17] [µg/mL]","MIC ([10]; 24 h, read-out: MIC) [µg/mL]","MIC [1, 18] [µg/mL]","MIC [2, 19]","MIC [3, 20] [µg/mL]","MIC [4, 21] [µg/mL]","MIC [5, 22] [µg/mL]","MIC [6, 23] [µg/mL]","MIC [7, 24] [µg/mL]","MIC [8, 24] [µg/mL]","MIC [9, 25] [µg/mL]","MIC [10, 24] [µg/mL]"
"CC(CN1c2ccccc2Sc2ccccc21)[N+](C)(C)C.[I-] (stereo not drawn) [Compound S13, N,N,N-trimethyl-1-(10H-phenothiazin-10-yl)propan-2-aminium iodide]",128,128,256,256,64,128,128,256,128,32,–,–,–,–,–,–,–,–,–,–
C[N+](C)(CCCN1c2ccccc2Sc2ccc(Cl)cc21)Cc1ccccc1 [Chlorpromazine Benzyl],–,–,–,–,–,–,–,–,–,–,4,8 µg/mL,16,64,2,16,4,8,64,2
"CSc1ccc2c(c1)N(CCC1CCCC[N+]1(C)C)c1ccccc1S2.[I-] (stereo not drawn) [Compound S24, 1,1-dimethyl-2-(2-(2-(methylthio)-10H-phenothiazin-10-yl)ethyl)piperidin-1-ium iodide]",16,16,128,256,8,64,16,32,128,8,–,–,–,–,–,–,–,–,–,–
CC(CN1c2ccccc2Sc2ccccc21)[N+](C)(C)Cc1ccccc1 (stereo not drawn) [Promethazine Benzyl],–,–,–,–,–,–,–,–,–,–,16,16 µg/mL,128,128,16,64,32,32,128,16
"CCCCCCCCCCCCCC[N+](C)(C)C(C)CN1c2ccccc2Sc2ccccc21.[Br-] (stereo not drawn) [Compound S44, N-(1-(10H-phenothiazin-10-yl)propan-2-yl)-N,N-dimethyltetradecan-1-aminium bromide]",–,–,–,–,–,–,–,–,–,–,–,8/16,–,–,–,–,–,–,–,–
"CCCCC[N+](C)(C)CC/C=C1/c2ccccc2Sc2ccc(Cl)cc21.[Br-] [Compound S38, (Z)—N-(3-(2-chloro-9H-thioxanthen-9-ylidene)propyl)-N,N-dimethylpentan-1-aminium bromide]",4,4,16,64,2,16,8,8,64,2,–,–,–,–,–,–,–,–,–,–
"CC(C)CC[N+](C)(C)CCCN1c2ccccc2Sc2ccc(Cl)cc21.[Br-] [Compound S5, N-(3-(2-chloro-10H-phenothiazin-10-yl)propyl)-N,N,3-trimethylbutan-1-aminium bromide]",16,16,32,128,8,32,64,32,128,8,–,–,–,–,–,–,–,–,–,–
COC(=O)CCCCC[N+](C)(C)C(C)CN1c2ccccc2Sc2ccccc21 (stereo not drawn) [Promethazine 6-Methoxy-6-oxo-1-hexyl],–,–,–,–,–,–,–,–,–,–,64,64 µg/mL,256,256,32,128,128,128,256,32
"CCCCC[N+](C)(C)CCCN1c2ccccc2Sc2ccc(Cl)cc21.[Br-] [Compound S6, N-(3-(2-chloro-10H-phenothiazin-10-yl)propyl)-N,N-dimethylpentan-1-aminium bromide]",64,64,128,256,32,64,64,64,256,32,–,–,–,–,–,–,–,–,–,–
"C=CC[N+](C)(C)C(C)CN1c2ccccc2Sc2ccccc21.[Br-] (stereo not drawn) [Compound S41, N-(1-(10H-phenothiazin-10-yl)propan-2-yl)-N,N-dimethylprop-2-en-1-aminium bromide]",64,64,256,256,64,128,256,256,256,32,–,–,–,–,–,–,–,–,–,–
COC(=O)CCCCC[N+](C)(C)CCC=C1c2ccccc2Sc2ccc(Cl)cc21 [Chlorprothixene 6-Methoxy-6-oxo-1-hexyl],–,–,–,–,–,–,–,–,–,–,8,8 µg/mL,128,128,8,64,8,8,128,8
"CC(C)CC[N+](C)(C)C(C)CN1c2ccccc2Sc2ccccc21.[Br-] (stereo not drawn) [Compound S16, N-(1-(10H-phenothiazin-10-yl)propan-2-yl)-N,N,3-trimethylbutan-1-aminium bromide]",16,16,64,64,8,64,16,32,128,8,–,–,–,–,–,–,–,–,–,–
"CC(C)=CCCC(C)CC[N+](C)(C)C(C)CN1c2ccccc2Sc2ccccc21.Cc1ccc(S(=O)(=O)[O-])cc1 (stereo not drawn) [Compound S45, N-(1-(10H-phenothiazin-10-yl)propan-2-yl)-N,N,3,7-tetramethyloct-6-en-1-aminium 4-methylbenzenesulfonate]",–,4,–,–,–,–,–,–,–,–,–,–,–,–,–,–,–,–,–,–
"CSc1ccc2c(c1)N(CCC1CCCC[N+]1(C)C(C)C)c1ccccc1S2.[Br-] (stereo not drawn) [Compound S26, 1-isopropyl-1-methyl-2-(2-(2-(methylthio)-10H-phenothiazin-10-yl)ethyl)piperidin-1-ium bromide]",8,8,32,128,8,16,8,8,128,8,–,–,–,–,–,–,–,–,–,–
"CCCCCCCCCCCC[N+](C)(C)CC/C=C1/c2ccccc2Sc2ccc(Cl)cc21.[Br-] [Compound S39, (Z)—N-(3-(2-chloro-9H-thioxanthen-9-ylidene)propyl)-N,N-dimethyldodecan-1-aminium bromide]",–,4,–,–,–,–,–,–,–,–,–,–,–,–,–,–,–,–,–,–
